Experiment [1] is described as follows: Cytotoxicity against human MOLP8 cells assessed as inhibition of cell viability incubated for 72 hrs by MTS assay. Format: functional, cell-based. To be noted: MOLP-8, 72 h. (Tetrazolium assays rely on reduction of a dye to a coloured formazan, in cell work by metabolically active cells.)
The subject of experiment [2] is AMO1. In words: Cytotoxicity against human AMO1 cells assessed as inhibition of cell viability incubated for 72 hrs by MTS assay. Format: functional, cell-based. The note with it: AMO1, 72 h.
Experiment [3] can be described thus: Cytotoxicity against human JIM1 cells assessed as inhibition of cell viability incubated for 72 hrs by MTS assay. Format: functional, cell-based. To be noted: JIM1, 72 h.
Experiment [4] in a line: Cytotoxicity against human KMS-27 cells assessed as inhibition of cell viability incubated for 72 hrs by MTS assay. Format: functional, cell-based. To be noted: KMS-27, 72 h.
For experiment [5], the system named is LP-1. In words: Cytotoxicity against human LP-1 cells assessed as inhibition of cell viability incubated for 72 hrs by MTS assay. The note with it: LP-1, 72 h. Format: functional, cell-based.
Experiment [6] has as its system RPMI-8226. Kind of experiment: Cytotoxicity against human RPMI-8226 cells assessed as inhibition of cell viability incubated for 72 hrs by MTS assay. Format: functional, cell-based. The note with it: RPMI-8226, 72 h.
For experiment [7], the system named is KMS-12-PE. In words: Cytotoxicity against human KMS-12-PE cells assessed as inhibition of cell viability incubated for 72 hrs by MTS assay. Format: functional, cell-based.
Experiment [8] relates to L-363. In words: Cytotoxicity against human L-363 cells assessed as inhibition of cell viability incubated for 72 hrs by MTS assay. Format: functional, cell-based. The note with it: L-363, 72 h.
The test system of experiment [9] is Quadruplex DNA. In words: Thermal stabilization of c-MYC G-quadruplex (Pu22) DNA (unknown origin) assessed as change in melting temperature at 1:1 ratio by circular dichroism spectroscopy. Format: nucleic-acid assay. For orientation: CD spectra are sensitive to the conformation of chiral molecules.
The nature of experiment [10]: Cytotoxicity against human KMM-1 cells assessed as inhibition of cell viability incubated for 72 hrs by MTS assay. Format: functional, cell-based. The note with it: KMM-1, 72 h.
The nature of experiment [11]: Cytotoxicity against human ARD cells assessed as inhibition of cell viability incubated for 72 hrs by MTS assay. Format: functional, cell-based.
Experiment [12] relates to Quadruplex DNA. In words: Binding affinity to c-MYC G-quadruplex (Pu22) DNA (unknown origin) assessed as association rate constant by surface plasmon resonance analysis. Format: nucleic-acid assay. In general terms: In SPR one partner is held on a chip, and binding of the other changes the refractive index at the surface.
Experiment [13] relates to HCT-116. In words: Cytotoxicity against human HCT-116 cells assessed as reduction in cell viability incubated for 24 hrs by MTT assay. Format: functional, cell-based. The note with it: HCT-116, 24 h.
Experiment [14] concerns Quadruplex DNA. Kind of experiment: Thermal stabilization of c-MYC G-quadruplex DNA (unknown origin) assessed as change in melting temperature at 1:10 ratio by FRET melting assay. Format: nucleic-acid assay.
The subject of experiment [15] is Quadruplex DNA. In words: Binding affinity to c-MYC G-quadruplex DNA (unknown origin) assessed as association constant by fluorescence spectroscopy. Format: nucleic-acid assay.
The test system of experiment [16] is Quadruplex DNA. Kind of experiment: Binding affinity to c-MYC G-quadruplex DNA (unknown origin) assessed as association rate constant by fluorometric titration method. Format: nucleic-acid assay.
Experiment [17] has as its system Quadruplex DNA. Kind of experiment: Thermal stabilization of c-MYC G-quadruplex DNA (unknown origin) assessed as change in melting temperature at 1:5 ratio by circular dichroism spectroscopy. Format: nucleic-acid assay.
Experiment [18] deals with Quadruplex DNA. Kind of experiment: Binding affinity to c-MYC G-quadruplex (Pu22) DNA (unknown origin) assessed as association rate constant by isothermal titration calorimetry method. Format: nucleic-acid assay.
Experiment [19] has as its system Quadruplex DNA. In words: Binding affinity to c-MYC G-quadruplex (Pu22) DNA (unknown origin) assessed as association constant by fluorescence spectroscopy. Format: nucleic-acid assay.
Experiment [20] deals with Quadruplex DNA. In words: Thermal stabilization of c-MYC G-quadruplex (Mer22) DNA (unknown origin) assessed as change in melting temperature at 1:3 ratio by UV-Vis spectroscopy. Format: nucleic-acid assay.
Experiment [21] has as its system Quadruplex DNA. In words: Thermal stabilization of c-MYC G-quadruplex (Mer22) DNA (unknown origin) assessed as change in melting temperature at 1:3 ratio by FRET melting assay. Format: nucleic-acid assay.
In experiment [22] the test system is Quadruplex DNA. Kind of experiment: Binding affinity to c-MYC G-quadruplex (Mer22) DNA (unknown origin) assessed as second order binding constant by isothermal titration calorimetry method. Format: nucleic-acid assay.
In experiment [23] the test system is Quadruplex DNA. Kind of experiment: Binding affinity to c-MYC G-quadruplex (Mer22) DNA (unknown origin) assessed as first order binding constant by isothermal titration calorimetry method. Format: nucleic-acid assay.
Experiment [24] has as its system Quadruplex DNA. Kind of experiment: Binding affinity to c-MYC G-quadruplex (Mer22) DNA (unknown origin) assessed as binding rate constant by surface plasmon resonance analysis. Format: nucleic-acid assay.
Experiment [25] deals with Quadruplex DNA. In words: Thermal stabilization of c-MYC G-quadruplex DNA (unknown origin) assessed as change in melting temperature at 1:1 ratio in presence of K+ by FRET melting assay. Format: nucleic-acid assay.
The test system of experiment [26] is Quadruplex DNA. Kind of experiment: Thermal stabilization of c-MYC G-quadruplex DNA (unknown origin) assessed as change in melting temperature at 1:1 ratio in absence of K+ by FRET melting assay. Format: nucleic-acid assay.
For experiment [27], the system named is SMMC-7721. In words: Antitumor activity against human SMMC-7721 cells xenografted in mouse model assessed as tumor growth inhibition at 20 mg/kg,ip administrated for 3 weeks. Format: functional. To be noted: SMMC-7721, 504 h.
The test system of experiment [28] is Quadruplex DNA. Kind of experiment: Binding affinity to c-MYC G-quadruplex DNA (unknown origin) assessed as association rate constant by isothermal titration calorimetry method. Format: nucleic-acid assay.
The test system of experiment [29] is Quadruplex DNA. Kind of experiment: Binding affinity to c-MYC G-quadruplex DNA (unknown origin) assessed as association rate constant by UV-Vis spectroscopy. Format: nucleic-acid assay.
For experiment [30], the system named is Quadruplex DNA. In words: Thermal stabilization of c-MYC G-quadruplex DNA (unknown origin) assessed as change in melting temperature at 1:2.5 ratio by FRET melting assay. Format: nucleic-acid assay.
Experiment [31] relates to Quadruplex DNA. In words: Binding affinity to c-MYC G-quadruplex DNA (unknown origin) assessed as second order binding constant by electrospray ionization mass spectrometry. Format: nucleic-acid assay.
Experiment [32] concerns Quadruplex DNA. Kind of experiment: Binding affinity to c-MYC G-quadruplex DNA (unknown origin) assessed as first order binding constant by electrospray ionization mass spectrometry. Format: nucleic-acid assay.
Experiment [33] concerns Quadruplex DNA. Kind of experiment: Binding affinity to c-MYC G-quadruplex (Mer22) DNA (unknown origin) assessed as association rate constant by surface plasmon resonance analysis. Format: nucleic-acid assay.

A word on the IC50: it is the point on the concentration scale where inhibition reaches its midpoint. As usually defined, the ΔTm is the shift of the melting midpoint relative to a reference. For `Cc1ccc(NC(=O)c2c(C)oc3ccc(O)c(CN4CCCCCC4)c23)cc1`, the IC50 in experiment [1] is 8.3 µM; in experiment [2], 11.3 µM; in experiment [3], 14.1 µM; in experiment [4], 9.6 µM; in experiment [5], 8.3 µM; in experiment [6] it was 15.9 µM. Also, the half-maximal inhibitory concentration (IC50) in experiment [7] amounted to 6.5 µM; in experiment [8], 5.8 µM; in experiment [10], 15.6 µM; in [11], 12.9 µM. In experiment [9], the ΔTm is 2.1 °C. In [12], the Ka is 2.2 10^5/M.
On to `CN(C)CCCNC(=O)c1ccc(-n2cc(-c3ccc4c(c3)c3ccccc3n4-c3ccc(C(=O)NCCCN(C)C)cc3)nn2)cc1`, for which, in experiment [13], the 50% inhibitory concentration (IC50) was 2.1 µM. In addition, the ΔTm in experiment [14] is 19.3 °C. For the same molecule, in experiment [15], the Ka was 5.9 10^6/M.
As for `c1cc2ccc3ccc4nc3c2nc1CNCCCCCCNCc1ccc2ccc3ccc(nc3c2n1)CNCCCCCCNC4`, the Ka in experiment [16] is 1.3 10^5/M. Also, the ΔTm is 17.2 °C in [14] and 15.1 °C in experiment [17].
Take `C(=N\Nc1nc(Nc2ccccc2)nc(Nc2ccccc2)n1)/c1c2ccccc2cc2ccccc12`: the Ka in experiment [18] is 9.53 10^4/M; in experiment [19] it was 8.33 10^5/M.
As for `NCC1=C2CNC(=O)C3=CC(CN)=C(CNC(=O)c4cc(CN)c(o4)CNC(=O)C4=CC(CN)=C(CNC(=O)C(=C1)O2)O4)O3`, the ΔTm in [20] and in [21] was 18 °C each time. Besides, the K is 1.86 10^6/M in experiment [22], 2.4 10^7/M in [23] and 2.87 10^7/M in experiment [24].
Regarding `CN(C)CCCNC(=O)c1ccc(-n2cc(-c3ccc4[nH]c5ccc(-c6cn(-c7ccc(C(=O)NCCCN(C)C)cc7)nn6)cc5c4c3)nn2)cc1`, the ΔTm in experiment [25] came out at 24 °C; in experiment [26] it was 23.5 °C.
As a reminder, the inhibition in vivo is the change of the read-out against control, counted positive when it falls. `CN(C)CCCNCCC(=O)Nc1ccc(C(=O)Nc2cc(Cl)ccc2-c2nc(NCCCN(C)C)c3ccccc3n2)cc1`: the inhibition in vivo at 20 mg/kg in experiment [27] worked out at 58.2%.
With `C[n+]1cccc(-c2cc3c4cc(-c5ccc[n+](C)c5)c5nc(C(F)(F)C(F)(F)C(F)(F)F)nc6c(-c7ccc[n+](C)c7)cc(c7cc(-c8ccc[n+](C)c8)c8nc(C(F)(F)C(F)(F)C(F)(F)F)nc2c8c37)c4c56)c1`, the results for the Ka in experiment [28], in experiment [15] and in experiment [29] were 1.3 10^7/M, 2.31 10^7/M and 2.38 10^7/M, respectively.
For `O=c1c2ccc3c4c(N5CCCCC5)cc5c(=O)n(CCN6CCCCC6)c(=O)c6cc7c(CCN8CCCCC8)cc8cc(c(=O)n1CCN1CCCCC1)c2c3c8c7c4c56`, the ΔTm in experiment [30] worked out at 16.4 °C. In addition, the values for the K in experiment [31] and in experiment [32] were 6.3 10^5/M and 1.2 10^6/M, respectively.
In the case of `NCCC(=O)NCC1=C2CNC(=O)C3=CC(CNC(=O)CCN)=C(CNC(=O)c4cc(CNC(=O)CCN)c(o4)CNC(=O)C4=CC(CNC(=O)CCN)=C(CNC(=O)C(=C1)O2)O4)O3`, the ΔTm in experiment [20] was 25 °C; in experiment [21], 23 °C. Further, the K was 5.2 10^5/M in experiment [22] and 7.71 10^7/M in [23]. For the same molecule, in experiment [33], the Ka was 4.85 10^6/M.
In the case of `Nc1nc(-c2ccccc2)c2c(n1)-c1cc(OCCN3CCCC3)ccc1C2=O`, in experiment [15], the Ka is 1 10^5/M. Also, the ΔTm in experiment [17] turned out to be 7.8 °C.

Source of the values: ChEMBL document CHEMBL5096149, “Recent Update on Targeting c-MYC G-Quadruplexes by Small Molecules for Anticancer Therapeutics” (J Med Chem, 2021).
